Among the data in paper PMC11273930, “Bioactive Bioxanthracene and Cyclodepsipeptides from the Entomopathogenic Fungus Blackwellomyces roseostromatus BCC56290” (Antibiotics, 2024) are IC50 values, retold here.

Assay in all cases: Cytotoxicity (MTT) assay
Common to all, as to assay type: cell-based

The subject of assay [1] is A431 (skin) epidermoid carcinoma cells. To be noted: Homo sapiens, A-431, read-out: IC50, Positive Control Epothilone B (nM). How it is done:
(§1) In vitro cytotoxic activity of the isolated compounds was tested by applying the MTT (3-(4,5-dimethylthiayol-2-yl)-2,5-diphenyltetrazolium bromide) assay as previously reported. The mammalian cell lines used in the tests were sourced from DSMZ and included mouse fibroblasts (L929) and endocervical adenocarcinoma (KB3.1), human lung carcinoma (A549), breast adenocarcinoma (MCF-7), human ovarian cancer (SKOV-3), prostate carcinoma (PC-3), and epidermoid carcinoma cells (A431). Epothilone B was used as the positive control.

Assay [2] deals with A549 (lung) human lung carcinoma. To be noted: A549, read-out: IC50, Positive Control Epothilone B (nM). How it is done: as §1
Assay [3] deals with MCF-7 (breast) adenocarcinoma. The note with it: Homo sapiens, MCF7, read-out: IC50, Positive Control Epothilone B (nM). How it is done:
as §1

In assay [4] the test system is PC-3 (prostate) carcinoma. The note with it: Homo sapiens, read-out: IC50, Positive Control Epothilone B (nM). Here is the method: as §1

As usually defined, the IC50 is the concentration that inhibits the measured activity by half.

`C/C(=C\c1csc(C)n1)[C@@H]1C[C@@H]2O[C@]2(C)CCC[C@H](C)[C@H](O)[C@@H](C)C(=O)C(C)(C)[C@@H](O)CC(=O)O1` [Epothilone B]: the IC50 in assay [1] was 0.06 nM; in assay [2] it was 0.05 nM; in assay [3] it was 0.07 nM; in assay [4], 0.09 nM.
